Like-named read-outs stand apart in the source and are kept apart here.
What was measured:
[1] = system: right ventricular remodeling following acute myocardial infarction; assay: Murine model of large anterior wall acute myocardial infarction (permanent ligation of the left coronary artery); type: in vivo, Male Imprinting Control Region (ICR) mice; conditions: 30 mg/kg i.p. every 6 hours for 7 days
Protocol: Male Imprinting Control Region (ICR) mice underwent permanent coronary artery ligation of the left coronary artery and treated with vehicle (saline) or ranolazine 30 mg/kg i.p. every 6 hours (N=10-12 per group) for 7 days starting at the time of ligation. Infarct size was measured early using Masson's trichrome staining. Transthoracic echocardiography was performed prior to surgery and 7 days later to measure left ventricular and right ventricular dimensions and function.

[2] = Plasma concentration of RAN given in diet to rats; type: in vivo; conditions: male, Sprague-Dawley, oral, rat, read-out: plasma concentrations
Source text: Male Sprague-Dawley rats were given a single injection of MCT (60 milligrams per kilogram, s.c.) at study inception and randomized into three groups; MCT, low dose RAN (0.25% weight of RAN over weight of chow), and high dose (0.5% weight of RAN over weight of chow) RAN. RAN was given in diet for 28 days mixed in standard rodent chow containing 0.25% or 0.5% RAN for low and high doses, respectively. These concentrations of RAN yielded plasma concentrations of 1-2 micromolar and 5-7 micromolar, respectively. A control group received a sub-cutaneous (s.c.) saline injection and was fed standard rodent chow. Pulmonary hemodynamics, RV function, and RV hypertrophy was assessed at endpoint (day 28 following MCT administration). Alpha-smooth muscle actin (α-SMA) staining on lung tissue sections were carried out to assess pulmonary vascular remodeling at day 28 as well.

[3] = system: MCT-induced PAH and RV dysfunction; assay: Monocrotaline (MCT)-induced chronic PAH and RV dysfunction model in rats; type: in vivo, Male Sprague-Dawley rats; conditions: for RV hypertrophy, RV(milligrams)/LV(milligrams) / plasma BNP levels / decrease in RV ejection fraction: day 28; for RV hypertrophy, RV(milligrams)/LV(milligrams): MCT 0.55±0.04; for plasma BNP levels: MCT 590±106, control 170±90; for decrease in RV ejection fraction: MCT −47±7%; for pulmonary systolic pressure: MCT 84±7, control 29±1; for RV systolic pressure: MCT 86±7, control 26±1
Source text: As is discussed in detail hereinabove, ranolazine is an anti-anginal drug that inhibits the late sodium current (INa) in cardiomyocytes. Late INa is increased during conditions of ischemia and hypoxia, and causes intracellular Ca^2+ overload by increasing the amount of intracellular Na^+ available for exchange via the Na^+—Ca^2+ exchanger (NCX). […] Monocrotaline or MCT (a poisonous crystalline alkaloid found in a leguminous plant of the genus Crotalaria) induces progressive pulmonary arterial hypertension (PAH) in rats that results in RV hypertrophy, contractile dysfunction, and eventually RV failure. Both human PAH and MCT-induced PAH models are characterized by hypoxia and increased ROS production but the role of late INa in this model has not been investigated. Therefore, the present example evaluates the efficacy of RAN to prevent MCT-induced PAH and RV dysfunction. Male Sprague-Dawley rats were given a single injection of MCT (60 milligrams per kilogram, s.c.) at study inception and randomized into three groups; MCT, low dose RAN (0.25% weight of RAN over weight of chow), and high dose (0.5% weight of RAN over weight of chow) RAN. RAN was given in diet for 28 days mixed in standard rodent chow containing 0.25% or 0.5% RAN for low and high doses, respectively. These concentrations of RAN yielded plasma concentrations of 1-2 micromolar and 5-7 micromolar, respectively. A control group received a sub-cutaneous (s.c.) saline injection and was fed standard rodent chow. Pulmonary hemodynamics, RV function, and RV hypertrophy was assessed at endpoint (day 28 following MCT administration). Alpha-smooth muscle actin (α-SMA) staining on lung tissue sections were carried out to assess pulmonary vascular remodeling at day 28 as well.

[4] = system: pulmonary hypertension or PAH; assay: Right ventricular function, exercise capacity and quality of life in patients with pulmonary hypertension or PAH; type: in vivo; conditions: contemplated result
Source text: To ascertain the improvement in right ventricular function in patients suffering from pulmonary hypertension or pulmonary arterial hypertension (PAH), the following parameters are examined: • Exercise capacity and quality of life • RV subendocardial perfusion using adenosine cardiac MRI studies • Exercise-induced changes in RV function determined non-invasively using comprehensive Doppler and tissue Doppler echocardiography along with determination of right ventricular—pulmonary vascular coupling and pulmonary vascular impedance spectra • RV contractility and comprehensive pressure-volume analysis using invasive hemodynamics, 2D and 3D echocardiography, and cardiac MRI Note that the aforementioned endpoints use a combination of invasive and non-invasive techniques. Echocardiography techniques are best suited for exercise studies. Echocardiographic RV volume data can be normalized to MRI RV volume data, and echocardiographic estimation of RV pressures can be normalized to invasive RV pressure data, thereby increasing the accuracy of echocardiographic analysis of RV structure and function.

[5] = echocardiography at day 7, versus vehicle-treated mice
[6] = high dose RAN (0.5% in chow), day 28 after MCT

In the case of `COc1ccccc1OCC(O)CN1CCN(CC(=O)Nc2c(C)cccc2C)CC1` (racemic) [ranolazine, ±-N-(2,6-dimethylphenyl)-4-[2-hydroxy-3-(2-methoxyphenoxy)-propyl]-1-piperazineacetamide], the infarct size ([1]; Masson's trichrome staining) is reported as “absence of any measurable effects”, the “LV function and dimension” value ([1]; echocardiography at day 7) is reported as “absence of any measurable effects” and the “RV dimension (RV diastolic and systolic areas)” value [1, 5] is reported as “significant preservation”. The “RV function (TAPSE and RV fractional area change)” value [1, 5] was “significant preservation”, the concentration at 28 days ([2]; 0.25 % weight of RAN over weight of chow, low dose RAN, 0.25% in chow) was 1 to 2 µM and the concentration at 28 days ([2]; 0.5 % weight of RAN over weight of chow, high dose RAN, 0.5% in chow) was 5 to 7 µM. The “MCT induced changes (PAH and RV dysfunction), overall” value ([3]; 0.25% and 0.5% RAN in chow, 28 days) was “significantly and dose-dependently attenuated”, the “RV hypertrophy, RV(milligrams)/LV(milligrams)” value ([3]; high dose RAN (0.5% in chow)) was 0.32±0.03 and the “plasma BNP levels” value ([3]; high dose RAN (0.5% in chow)) was 60±20 picograms/milliliter. For the same compound, the “decrease in RV ejection fraction” value ([3]; high dose RAN (0.5% in chow)) was −10±8%, the pulmonary systolic pressure [3, 6] was 40±4 millimeters Hg and the RV systolic pressure [3, 6] was 39±4 millimeters Hg. The “RV hypertrophy, RV(milligrams)/LV(milligrams)” value ([3]; low dose RAN (0.25% in chow)) was 0.4±0.03, the “plasma BNP levels” value ([3]; low dose RAN (0.25% in chow)) was 180±30 picograms/milliliter and the “decrease in RV ejection fraction” value ([3]; low dose RAN (0.25% in chow)) was −17±11%. For the same compound, the pulmonary systolic pressure ([3]; low dose RAN (0.25% in chow), day 28 after MCT 60 mg/kg s.c.) was 59±5 millimeters Hg, the RV systolic pressure ([3]; low dose RAN (0.25% in chow), day 28 after MCT) was 58±5 millimeters Hg and the “pulmonary vascular remodeling in intra-acinar arteries (ratio of vessel wall thickness to lumen diameter)” value ([3]; α-SMA staining of lung sections, day 28, compared to MCT animals) was “significantly reduced remodeling”. For the same compound, the “exercise capacity and quality of life” value [4] was “improve exercise capacity and quality of life” and the “pain associated with pulmonary hypertension or PAH” value [4] was “ameliorates pain”.

From patent publication US20120004188A1, “USE OF RANOLAZINE FOR TREATING PULMONARY HYPERTENSION” (Gilead Sciences, Inc., priority 2010, published 2012)
